US7601716B2, “Pyridopyrazines and derivatives thereof as ALK and c-Met inhibitors” (Cephalon, Inc., priority 2006, dated 2009)

Legend:
[1] = target: T1, c-Met (cytoplasmic domain) (Homo sapiens, UniProt P08581); assay: c-Met Kinase Assay (ELISA/TRF, PLC-γ substrate); format: biochemical; conditions: 3 μM ATP (Km level); read-out: c-Met Kinase Inhibition (IC50)
T1 construct: Reactions were initiated with 30 ng/mL c-Met (cytoplasmic domain, Invitrogen Corporation #PV3143); purchased Invitrogen Corporation PV3143
How it was run: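 c-Met cytoplasmic domain (30 ng/mL) phosphorylates plate-coated GST–PLC-γ for 15 min at 37 °C. Phosphotyrosine detected with Eu-labeled PT66 antibody by time-resolved fluorescence. IC50 from variable-slope sigmoidal fit of % inhibition vs log concentration.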

[2] = target: T2, c-Met (phospho-c-Met) in HT29 cells (Homo sapiens, UniProt P08581); assay: c-Met Cellular Activity/Autophosphorylation Assay, HT29 cells; format: cell-based; conditions: for inhibition at 1 µM: HT-29, 1 μM compound, read-out: c-Met autophosphorylation inhibition score, HT29 Cells (1 μM); for inhibition at 3 µM: HT-29, 3 μM compound, read-out: c-Met autophosphorylation inhibition score, HT29 Cells (3 μM)
T2 construct: endogenous in cells; host or cells: HT29, A549 (HGF-stimulated), GTL-16
Protocol: HT29 and GTL-16 cells were serum starved for one hour in media containing 0.05% BSA and varying concentrations of Example compounds (1-10 μM). A549 cells were serum starved overnight in media containing 0.05% BSA then treated for one hour with Example compounds followed by a 15 minute stimulation with 50 ng/mL HGF (Peprotech, Rocky Hill, N.J.), respectively. Samples were resolved by electrophoresis on a 3-8% Tris-Acetate gel (40 ma/gel) and then transferred to a nitrocellulose membrane. Membranes were blocked for one hour at room temperature in Odyssey Blocking Buffer (Licor #927-40000) diluted 1:1 with 1×TBS. Membranes were then co-incubated overnight at 4° C. with primary antibodies [total Met (Cell Signaling, #3127) and Phospho-Met (Biosource, #44-888G) 1:1000 each in Odyssey Blocking Buffer diluted 1:1 with 1×TBS-T 0.05%]. The next day, membranes were washed and co-incubated with secondary antibodies [Goat anti mouse IRDye800 (Rockland, #610-132-121) and Goat anti rabbit Alexa fluor 700 (Molecular Probes, #A21038) 1:10,000] in Odyssey Blocking Buffer diluted 1:1 with 1×TBS-T 0.05% for one hour at room temperature protected from light. Blots were then washed and read on the Odyssey Infrared Imager. Total c-Met signal was visualized at 800 nm detection and phospho-c-Met signal was visualized at 700 nm detection.

[3] = target: baculovirus-expressed ALK (Homo sapiens, UniProt Q9UM73); assay: ALK Kinase Assay (ELISA/TRF, PLC-γ substrate); format: biochemical; conditions: read-out: ALK Kinase Inhibition (IC50); note: 1 µM ATP (Km level)
How it was run: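 An ELISA adapted from a trkA format was used: wells carried GST-fused PLC-γ substrate, and enzyme addition (30 ng/ml ALK) started a 15-minute reaction at 37° C.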

Chain of baculovirus-expressed ALK (Q9UM73 19-1620): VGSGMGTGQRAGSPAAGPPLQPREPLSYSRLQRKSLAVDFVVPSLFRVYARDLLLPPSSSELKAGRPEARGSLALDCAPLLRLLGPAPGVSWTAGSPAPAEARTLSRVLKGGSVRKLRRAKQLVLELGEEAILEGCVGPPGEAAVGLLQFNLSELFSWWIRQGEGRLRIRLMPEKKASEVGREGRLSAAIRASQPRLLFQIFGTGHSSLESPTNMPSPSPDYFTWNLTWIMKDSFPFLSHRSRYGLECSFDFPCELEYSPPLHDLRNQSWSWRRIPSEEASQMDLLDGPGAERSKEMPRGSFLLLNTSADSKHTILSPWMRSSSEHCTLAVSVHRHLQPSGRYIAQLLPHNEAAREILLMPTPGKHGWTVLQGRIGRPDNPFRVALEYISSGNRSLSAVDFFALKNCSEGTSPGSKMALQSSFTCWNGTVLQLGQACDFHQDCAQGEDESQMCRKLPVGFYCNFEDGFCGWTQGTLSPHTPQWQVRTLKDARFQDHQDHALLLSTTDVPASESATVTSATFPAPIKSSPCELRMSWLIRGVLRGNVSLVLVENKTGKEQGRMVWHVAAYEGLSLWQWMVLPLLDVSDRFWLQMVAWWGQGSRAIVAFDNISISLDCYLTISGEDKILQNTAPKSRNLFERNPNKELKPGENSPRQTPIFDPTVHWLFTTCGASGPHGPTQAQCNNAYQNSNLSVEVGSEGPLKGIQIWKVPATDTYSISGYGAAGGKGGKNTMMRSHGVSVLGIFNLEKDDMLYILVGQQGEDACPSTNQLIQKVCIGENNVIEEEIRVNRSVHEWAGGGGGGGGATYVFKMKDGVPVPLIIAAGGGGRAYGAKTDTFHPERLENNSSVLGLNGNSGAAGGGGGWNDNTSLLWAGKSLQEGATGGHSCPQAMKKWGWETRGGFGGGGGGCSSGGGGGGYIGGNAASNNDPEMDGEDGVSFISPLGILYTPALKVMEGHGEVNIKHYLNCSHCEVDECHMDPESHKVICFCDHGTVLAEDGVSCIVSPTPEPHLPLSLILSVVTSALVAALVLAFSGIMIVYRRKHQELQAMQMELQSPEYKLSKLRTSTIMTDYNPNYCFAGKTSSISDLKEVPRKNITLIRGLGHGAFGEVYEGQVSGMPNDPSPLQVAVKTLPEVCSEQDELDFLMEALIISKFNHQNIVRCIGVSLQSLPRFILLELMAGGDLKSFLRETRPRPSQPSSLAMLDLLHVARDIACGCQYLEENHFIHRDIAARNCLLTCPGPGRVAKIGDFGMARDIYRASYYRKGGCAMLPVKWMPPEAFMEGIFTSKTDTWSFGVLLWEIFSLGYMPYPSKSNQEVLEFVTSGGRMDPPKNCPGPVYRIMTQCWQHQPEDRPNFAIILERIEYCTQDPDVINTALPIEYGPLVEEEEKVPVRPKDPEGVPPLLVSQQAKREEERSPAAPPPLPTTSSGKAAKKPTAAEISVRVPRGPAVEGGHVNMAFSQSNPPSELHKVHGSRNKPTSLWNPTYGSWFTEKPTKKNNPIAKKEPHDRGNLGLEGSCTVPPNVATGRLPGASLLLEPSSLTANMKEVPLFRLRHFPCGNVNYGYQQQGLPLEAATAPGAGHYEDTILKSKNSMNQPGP
T1 sequence (P08581 956-1390 limits assumed): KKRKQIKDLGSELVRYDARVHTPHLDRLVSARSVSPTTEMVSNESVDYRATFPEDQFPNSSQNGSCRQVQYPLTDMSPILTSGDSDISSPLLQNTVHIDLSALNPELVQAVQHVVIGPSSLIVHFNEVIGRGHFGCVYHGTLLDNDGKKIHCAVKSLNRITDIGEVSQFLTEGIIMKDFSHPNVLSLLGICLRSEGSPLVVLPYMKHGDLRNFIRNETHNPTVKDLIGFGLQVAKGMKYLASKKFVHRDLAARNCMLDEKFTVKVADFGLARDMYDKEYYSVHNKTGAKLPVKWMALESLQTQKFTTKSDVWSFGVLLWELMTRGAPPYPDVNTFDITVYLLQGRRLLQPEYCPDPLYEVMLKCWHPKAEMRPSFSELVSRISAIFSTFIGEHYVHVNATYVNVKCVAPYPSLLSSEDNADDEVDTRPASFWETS
T2 sequence (P08581 25-1390): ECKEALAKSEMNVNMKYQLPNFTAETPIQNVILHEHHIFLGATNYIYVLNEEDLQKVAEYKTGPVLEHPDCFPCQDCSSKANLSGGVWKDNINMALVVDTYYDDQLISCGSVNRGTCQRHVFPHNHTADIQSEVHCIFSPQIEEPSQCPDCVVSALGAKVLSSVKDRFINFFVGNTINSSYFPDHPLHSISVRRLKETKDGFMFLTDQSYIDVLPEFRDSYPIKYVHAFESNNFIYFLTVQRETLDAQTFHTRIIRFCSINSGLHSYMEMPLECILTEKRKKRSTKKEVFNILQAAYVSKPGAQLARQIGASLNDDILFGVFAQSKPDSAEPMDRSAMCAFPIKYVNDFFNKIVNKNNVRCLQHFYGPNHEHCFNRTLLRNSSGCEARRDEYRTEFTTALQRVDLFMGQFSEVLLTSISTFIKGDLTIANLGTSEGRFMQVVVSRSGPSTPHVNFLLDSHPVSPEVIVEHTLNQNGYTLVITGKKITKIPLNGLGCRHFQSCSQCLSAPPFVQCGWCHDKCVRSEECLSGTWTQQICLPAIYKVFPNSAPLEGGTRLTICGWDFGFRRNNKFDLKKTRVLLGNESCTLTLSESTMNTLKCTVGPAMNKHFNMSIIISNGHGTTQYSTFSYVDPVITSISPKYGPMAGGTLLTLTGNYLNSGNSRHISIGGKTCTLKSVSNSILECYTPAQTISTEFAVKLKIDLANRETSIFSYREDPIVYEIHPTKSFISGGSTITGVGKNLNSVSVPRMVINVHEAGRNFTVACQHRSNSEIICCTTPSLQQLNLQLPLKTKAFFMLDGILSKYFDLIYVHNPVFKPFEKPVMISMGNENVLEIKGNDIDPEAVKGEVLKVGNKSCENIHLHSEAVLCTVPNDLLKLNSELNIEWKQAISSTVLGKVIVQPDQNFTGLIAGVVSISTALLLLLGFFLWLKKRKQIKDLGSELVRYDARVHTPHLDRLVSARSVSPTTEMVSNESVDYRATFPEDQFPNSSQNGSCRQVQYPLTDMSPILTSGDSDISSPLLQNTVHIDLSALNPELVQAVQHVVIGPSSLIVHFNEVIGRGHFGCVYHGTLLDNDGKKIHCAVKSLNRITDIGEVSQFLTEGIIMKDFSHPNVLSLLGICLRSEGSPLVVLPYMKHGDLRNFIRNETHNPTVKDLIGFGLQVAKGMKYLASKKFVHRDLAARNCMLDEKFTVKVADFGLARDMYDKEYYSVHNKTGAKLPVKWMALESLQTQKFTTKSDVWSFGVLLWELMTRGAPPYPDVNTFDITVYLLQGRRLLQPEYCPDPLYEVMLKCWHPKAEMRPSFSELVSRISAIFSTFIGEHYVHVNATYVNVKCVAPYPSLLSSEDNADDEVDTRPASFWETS

SMILES	melting point	IC50 [1] [µM]	inhibition at 1 µM [2] [%]	inhibition at 3 µM [2] [%]	IC50 [3] [µM]
CN1CCN(C(=O)c2ccc(-c3cnc4c(c3)N(Cc3c(F)ccc(F)c3Cl)CCN4)cc2)CC1 [Example 104, {4-[1-(2-Chloro-3,6-difluorobenzyl)-1,2,3,4-tetrahydropyrido[2,3-b]pyrazin-7-yl]phenyl}-(4-methylpiperazin-1-yl)methanone]		0.1 to 1	0 to 25	51 to 75	< 0.1
O=C(c1ccccc1)N1CCNc2ncccc21 [Example 41, (3,4-Dihydro-2H-pyrido[2,3-b]pyrazin-1-yl)phenylmethanone]	166 to 168 °C	> 100			> 100
Fc1ccc(F)c(CN2CCNc3ncc(-c4ccc(N5CCOCC5)nc4)cc32)c1 [Example 70, 1-(2,5-Difluorobenzyl)-7-(6-morpholin-4-yl-pyridin-3-yl)-1,2,3,4-tetrahydropyrido[2,3-b]pyrazine]	206 to 207 °C	10 to 100			0.1 to 1
CCOC(=O)c1ccc(-c2cnc3c(c2)N(Cc2cc(F)ccc2F)C(=O)CN3)cc1 [Example 55, 4-[1-(2,5-Difluorobenzyl)-2-oxo-1,2,3,4-tetrahydropyrido[2,3-b]pyrazin-7-yl]benzoic acid ethyl ester]	201 to 203 °C	> 100			10 to 100
CC1(C)Nc2ncc(I)cc2N(Cc2cc(F)ccc2F)C1=O [Example 92, 1-(2,5-Difluorobenzyl)-7-iodo-3,3-dimethyl-3,4-dihydro-1H-pyrido[2,3-b]pyrazin-2-one]	198 to 201 °C	> 100			> 100
Clc1ccc(Cl)c(CN2CCNc3ncc(-c4ccc(N5CCCC5)nc4)cc32)c1 [Example 166, 1-(2,5-Dichlorobenzyl)-7-(6-pyrrolidin-1-yl-pyridin-3-yl)-1,2,3,4-tetrahydropyrido[2,3-b]pyrazine]	> 200 °C	> 100			0.1 to 1
CCOC(=O)c1ccc(-c2cnc3c(c2)N(Cc2cc(Cl)ccc2C(F)(F)F)CCN3)cc1 [Example 193, 4-{1-[5-Chloro-2-(trifluoromethyl)benzyl]-1,2,3,4-tetrahydropyrido[2,3-b]pyrazin-7-yl}benzoic acid ethyl ester]	154 °C	> 100			> 100
O=C(c1ccc(-c2cnc3c(c2)N(Cc2cc(Cl)ccc2C(F)(F)F)CCN3)cc1)N1CCCCC1 [Example 204]	216 °C	10 to 100			0.1 to 1
O=C(O)c1cnc2c(c1)N(Cc1cc(Cl)ccc1Cl)CCN2 [Example 128, 1-(2,5-Dichlorobenzyl)-1,2,3,4-tetrahydropyrido[2,3-b]pyrazine-7-carboxylic acid]	273 °C (dec.)	10 to 100			> 100
O=C(c1ccccc1)N1CCNc2ncc(I)cc21 [Example 42, (7-Iodo-3,4-dihydro-2H-pyrido[2,3-b]pyrazin-1-yl)phenylmethanone]	164 to 166 °C	> 100			> 100

Next, values leading:

melting point	IC50 [1] [µM]	inhibition at 1 µM [2] [%]	inhibition at 3 µM [2] [%]	IC50 [3] [µM]	SMILES
> 200 °C	1 to 10	51 to 75	76 to 100	< 0.1	Nc1ccc(-c2cnc3c(c2)N(Cc2c(F)ccc(F)c2Cl)CCN3)cn1 [Example 184, 5-[1-(2-Chloro-3,6-difluorobenzyl)-1,2,3,4-tetrahydropyrido[2,3-b]pyrazin-7-yl]-pyridin-2-ylamine]
225 °C	> 100			10 to 100	O=C1CNc2ncc(I)cc2N1Cc1ccccc1 [Example 8, 1-Benzyl-7-iodo-3,4-dihydro-1H-pyrido[2,3-b]pyrazin-2-one]
227 to 228 °C	> 100			> 100	O=C1CNc2ncc(I)cc2N1Cc1cc(F)c(F)cc1F [Example 81, 7-Iodo-1-(2,4,5-trifluorobenzyl)-3,4-dihydro-1H-pyrido[2,3-b]pyrazin-2-one]
> 200 °C	> 100			10 to 100	O=C1CNc2ncc(-c3cccnc3)cc2N1Cc1c(Cl)cccc1Cl [Example 137, 1-(2,6-Dichlorobenzyl)-7-pyridin-3-yl-3,4-dihydro-1H-pyrido[2,3-b]pyrazin-2-one]
> 200 °C	10 to 100			1 to 10	Clc1cccc(Cl)c1CN1CCNc2ncc(I)cc21 [Example 162, 1-(2,6-Dichlorobenzyl)-7-iodo-1,2,3,4-tetrahydropyrido[2,3-b]pyrazine]
175 °C	10 to 100			1 to 10	Fc1ccc(F)c(CN2CCNc3ncc(I)cc32)c1 [Example 62, 1-(2,5-Difluorobenzyl)-7-iodo-1,2,3,4-tetrahydropyrido[2,3-b]pyrazine]
250 °C	> 100			1 to 10	O=C(O)c1ccc(-c2cnc3c(c2)N(Cc2ccccc2OC(F)(F)F)CCN3)cc1 [Example 298, 4-{1-[2-(Trifluoromethoxy)benzyl]-1,2,3,4-tetrahydropyrido[2,3-b]pyrazin-7-yl}benzoic acid]
120 to 125 °C	> 100			> 100	FC(F)(F)c1ccc(Cl)c(CN2CCNc3ncc(I)cc32)c1 [Example 119, 1-(2-Chloro-5-trifluoromethylbenzyl)-7-iodo-1,2,3,4-tetrahydropyrido[2,3-b]pyrazine]
171 to 172 °C	10 to 100			1 to 10	CC1(C)Nc2ncc(-c3ccc(C(=O)N4CCC[C@H]4CN4CCCC4)cc3)cc2N(Cc2cc(F)ccc2F)C1=O [Example 94, 1-(2,5-Difluorobenzyl)-3,3-dimethyl-7-[4-((S)-2-[(pyrrolidin-1-yl)methyl]pyrrolidine-1-carbonyl)phenyl]-3,4-dihydro-1H-pyrido[2,3-b]pyrazin-2-one]
164 to 165 °C	1 to 10			0.1 to 1	CN1CCN(c2ccc(-c3cnc4c(c3)N(S(=O)(=O)c3ccccc3Cl)CCN4)cn2)CC1 [Example 126, 1-(2-Chlorobenzenesulfonyl)-7-[6-(4-methylpiperazin-1-yl)pyridin-3-yl]-1,2,3,4 tetrahydropyrido[2,3-b]pyrazine]
244 °C	> 100			1 to 10	CC(=O)Nc1ccc(-c2cnc3c(c2)N(Cc2cc(Cl)ccc2C(F)(F)F)CCN3)cc1 [Example 304, N-(4-{1-[5-Chloro-2-(trifluoromethyl)benzyl]-1,2,3,4-tetrahydropyrido[2,3-b]pyrazin-7-yl}phenyl)acetamide]
189 to 191 °C	> 100			10 to 100	O=C1CNc2ncc(I)cc2N1Cc1ccc(C(F)(F)F)o1 [Example 290, 7-Iodo-1-[5-(trifluoromethyl)furan-2-ylmethyl]-3,4-dihydro-1H-pyrido[2,3-b]pyrazin-2-one]
92 to 95 °C	10 to 100			1 to 10	CC(C)(C)OC(=O)N1CC=C(c2cnc3c(c2)N(Cc2cc(Cl)ccc2Cl)CCN3)CC1 [Example 130, 4-[1-(2,5-Dichlorobenzyl)-1,2,3,4-tetrahydropyrido[2,3-b]pyrazin-7-yl]-3,6-dihydro-2H-pyridine-1-carboxylic acid tert-butyl ester]
177 to 178 °C	10 to 100			> 100	CCOC(=O)c1ccc(-c2cnc3c(c2)N(C(=O)c2ccccc2)CCN3)cc1 [Example 44, 4-(1-Benzoyl-1,2,3,4-tetrahydropyrido[2,3-b]pyrazin-7-yl)benzoic acid ethyl ester]
195 °C	10 to 100			10 to 100	CCNC(=O)c1ccc(-c2cnc3c(c2)N(Cc2ccccc2)C(=O)CN3)cc1 [Example 27, 4-(1-Benzyl-2-oxo-1,2,3,4-tetrahydropyrido[2,3-b]pyrazin-7-yl)-N-ethyl-benzamide]
